Test results from ChEMBL document CHEMBL4699640, “l-Tryptophan Induces a Marine-Derived Fusarium sp. to Produce Indole Alkaloids with Activity against the Zika Virus” (J Nat Prod, 2020).

Test system: Zika virus
Experiment: Antiviral activity against Zika virus Z16019 infected in human A549 cells assessed as reduction in viral titer preincubated for 1 hr followed by compound washout and subsequent compound addition without virus and measured after 48 hrs by plaque assay
Type: functional, organism-based
Details: Zika virus, Z16019, A549; read-out: EC50; call rule not given here

Point of comparison: `CC(C)=C[C@H]1C[C@]2(C)[C@H](CC[C@@]3(C)[C@H]2CC[C@H]2CC(=O)c4ccccc4NC(=O)[C@@]23C)O1` [ASPORYZIN A], EC50 18 µM. Against it:
- O=C1c2ccccc2NC1(c1c[nH]c2ccccc12)c1c[nH]c2ccccc12 — within 1.5-fold, 22 µM
- CC(C)=C[C@H]1C[C@]2(C)[C@H](CC[C@@]3(C)[C@H]2CC[C@H]2CC(=O)c4ccccc4NC(=O)O[C@@]23C)O1 — 1.5-fold lower, 12 µM
- CC(=O)C(C)(c1c[nH]c2ccccc12)c1c[nH]c2ccccc12 — the same, 18 µM
- CC(C)=C[C@H]1C[C@]2(C)[C@H](CC[C@@]3(C)[C@H]2CC[C@H]2Cc4c([nH]c5ccccc45)[C@@]23C)O1 — 4.3-fold lower, 4.2 µM
- C#C[C@@]1(O)[C@H](O)[C@@H](CO)O[C@H]1n1ccc2c(N)ncnc21 — within 1.5-fold, 15 µM
- CC(=O)OCC(=O)O[C@H]1CC[C@@]2(C)[C@@H](CC[C@H]3Cc4c([nH]c5ccccc45)[C@@]32C)[C@]1(C)CCC=C(C)C — 2.4-fold lower, 7.5 µM
- COC(=O)Cc1c(-c2cc3ccccc3[nH]2)[nH]c2ccccc12 — 2.8-fold higher, 50 µM
- O=C(C(=O)c1c[nH]c2ccccc12)c1c[nH]c2ccccc12 — 3.6-fold lower, 5 µM
- O=C(Cc1c[nH]c2ccccc12)OCCc1c[nH]c2ccccc12 — 2.1-fold higher, 38 µM

Same assay, conditions: a549

In the case of `Nc1ccccc1CC(c1c[nH]c2ccccc12)c1c[nH]c2ccccc12`, the EC50 is reported as “Not Active”.
For `C[S+]([O-])CCC(c1c[nH]c2ccccc12)c1c[nH]c2ccccc12` (stereo unspecified), the EC50 was “Not Active”.
`CC(C)=CCC[C@]1(C)[C@@H](O)CC[C@@]2(C)[C@H]1CC[C@H]1Cc3c([nH]c4ccccc34)[C@@]12C` [EMINDOLE SB] was tested, and the EC50 was “Not Active”.

Test system: A549
Experiment: Cytotoxicity against human A549 cells assessed as reduction in cell viability by MTT assay
Type: cell-based
Details: not given

Point of comparison: `O=C(c1c[nH]c2ccccc12)c1nccc2c1[nH]c1ccccc12`, IC50 6.3 µM. Against it:
- CC(C)=CCC[C@]1(C)[C@@H](O)CC[C@@]2(C)[C@H]1CC[C@H]1Cc3c([nH]c4ccccc34)[C@@]12C [EMINDOLE SB] — within 1.5-fold, 4.4 µM

Test system: MDA-MB-231
Experiment: Cytotoxicity against human MDA-MB-231 cells assessed as reduction in cell viability by MTT assay
Type: cell-based
Details: not given

With `CC(C)=CCC[C@]1(C)[C@@H](O)CC[C@@]2(C)[C@H]1CC[C@H]1Cc3c([nH]c4ccccc34)[C@@]12C` [EMINDOLE SB] the IC50 was 3.2 µM.
